Measured values reported in patent US9029097B2, “Biosensors for monitoring receptor-mediated G-protein activation” (Universite de Montreal, priority 2005, dated 2015).
“Also recorded” adds a separate entry of the source. Like-named read-outs stand apart in the source and are kept apart here.

What was measured:
[1] = biological target: T1, human α2A-adrenergic receptor (α2AAR) (Homo sapiens, UniProt P08913); experiment: BRET between α2AAR and tagged G protein subunits (Gβ1, Gγ2, Gαi1-91Rluc, Gαi1-122Rluc) in living HEK293T cells; type: cell-based; conditions: for effect of pre-treatment on agonist-promoted changes in BRET between α2AAR and G protein subunits: pertussis toxin 16 h at 37° C., UK14,304, FIG. 21
T1 construct: expressed in transfected cells; host or cells: HEK293T (transient)
T1 sequence (P08913 1-465): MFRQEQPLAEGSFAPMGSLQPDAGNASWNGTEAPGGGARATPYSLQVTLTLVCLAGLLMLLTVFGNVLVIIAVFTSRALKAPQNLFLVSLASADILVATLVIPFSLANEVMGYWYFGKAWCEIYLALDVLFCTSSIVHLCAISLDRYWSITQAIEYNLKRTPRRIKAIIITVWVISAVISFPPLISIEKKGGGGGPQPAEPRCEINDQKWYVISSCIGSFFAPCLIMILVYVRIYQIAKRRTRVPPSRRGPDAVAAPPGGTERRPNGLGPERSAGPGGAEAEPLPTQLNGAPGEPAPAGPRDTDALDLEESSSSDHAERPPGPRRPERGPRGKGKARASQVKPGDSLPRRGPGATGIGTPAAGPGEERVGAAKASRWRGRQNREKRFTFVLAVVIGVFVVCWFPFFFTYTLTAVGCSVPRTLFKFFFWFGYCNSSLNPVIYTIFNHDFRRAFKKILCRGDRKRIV
Description: (§1) Rluc-tagged receptors and G protein constructs were transiently co-transfected in HEK293T cells. […] For the experiment using α2AAR-Rluc (FIG. 4f), the G protein heterotrimer was complimented with the most specific Gαi2. Forty-eight hours post-transfection, cells were washed twice with PBS, detached with PBS-5 mM EDTA and resuspended in PBS-0.1% glucose at RT. Cells (50 μg of proteins per well) were then distributed in a 96-well microplate (white Optiplate, PerkinElmer) and incubated in the presence or absence of different ligands for 1 min except in the case of the kinetic studies where the times are indicated. DeepBlueC™ coelenterazine (PerkinElmer) was added at a final concentration of 5 μM, and readings (except for the kinetic studies; see below) were collected using a modified top-count apparatus (TopCount.NX™, Packard Bioscience) that allows the sequential integration of the signals detected in the 370-450 nm and 500-530 nm windows using filters with the appropriate band pass (Chroma). The BRET signal was determined by calculating the ratio of the light emitted by GFP10 (500-530 nm) over the light emitted by the Rluc (370-450 nm). The net BRET values were obtained by subtracting the BRET background signal detected when the Rluc-tagged construct was expressed alone from BRET signals detected in cells coexpressing both Rluc- and GFP10-tagged constructs. […] The expression level of each protein was determined by direct measurement of total fluorescence and luminescence on aliquots of the transfected cells. The GFP10 total fluorescence was measured using a FluoroCount (PerkinElmer) with an excitation filter at 400 nm, an emission at 510 nm, and the following parameters: gain 1; PMT 1100 V; time 1.0 s. After fluorescence measurement, the same cells were incubated for 8 min with Coelenterazine h (Molecular Probes) at a final concentration of 5 μM and the total luminescence of cells was measured using a LumiCount (PerkinElmer Life Sciences) with the following parameters: gain 1; PMT 900 V; time 0.5 s. […] To avoid variations in the BRET signal that could result from fluctuations in the relative expression levels of the energy donor and acceptor, transfection conditions were designed so as to maintain a constant GFP10/Rluc expression ratio in each experimental set.
For kinetic analysis of receptor/Gαβγ interactions, DeepBlueC™ or Coelenterazine h luciferase substrate was added prior to the injection of the different ligands using the Mithras LB 940 apparatus (Berthold) and MicroWin2000 software. Readings were then collected at 0.05 or 0.1 sec intervals. Injection of the different ligands was included with in the kinetic program to allow a baseline recording followed by real-time recording of the BRET changes. The BRET signals were determined for each time by calculating the ratio of the light emitted by GFP over that emitted by the Rluc. To determine the half-time (t½) of Iso-induced BRET, data were represented as the difference between the Iso-induced BRET signals and the average of basal BRET signal (net agonist-promoted BRET signal). Curves were fitted using a non-linear regression and one phase exponential association fit equation (GraphPad Prism).
For agonist stimulations longer than 1 minute, cells were first treated with the ligand (agonist, antagonist, inverse agonist) and DeepBlueC™ coelenterazine added immediately before BRET readings in the modified TopCount.NXT™ apparatus. For these experiments, readings were taken directly in 96 well plates 72 hours post-transfection without detaching the cells.

[2] = biological target: T2, α2AAR (Homo sapiens, UniProt P08913); experiment: BRET between Gαi1-Rluc and GFP10-Gγ2 in the presence of α2AAR (Gα/Gβγ interaction); type: cell-based
T2 construct: expressed in transfected cells; host or cells: HEK293T
T2 sequence (P08913 1-465): T1 sequence (P08913 1-465)
Description: as §1

[3] = biological target: T3, β2-adrenergic receptor (β2AR) (Homo sapiens, UniProt P07550); experiment: BRET in membrane preparations from HEK293T cells co-expressing β2AR-Rluc and GFP10-Gβ1 or GFP10-Gγ2; type: biochemical; conditions: membranes
T3 construct: expressed in transfected cells; host or cells: HEK293T (transient, calcium phosphate)
Description: Treatments: Iso, 10 μM; Feno, 10 μM; ICI, 100 μM; GTPγS, 200 μM. […] Rluc-tagged receptors and G protein constructs were transiently co-transfected in HEK293T cells. […] Forty-eight hours post-transfection, cells were washed twice with PBS, detached with PBS-5 mM EDTA and resuspended in PBS-0.1% glucose at RT. […] DeepBlueCTM coelenterazine (PerkinElmer) was added at a final concentration of 5 μM, and readings (except for the kinetic studies; see below) were collected using a modified top-count apparatus (TopCount.NXTM, Packard Bioscience) that allows the sequential integration of the signals detected in the 370-450 nm and 500-530 nm windows using filters with the appropriate band pass (Chroma). […] The net BRET values were obtained by subtracting the BRET background signal detected when the Rluc-tagged construct was expressed alone from BRET signals detected in cells coexpressing both Rluc- and GFP10-tagged constructs. […] The expression level of each protein was determined by direct measurement of total fluorescence and luminescence on aliquots of the transfected cells. […] To avoid variations in the BRET signal that could result from fluctuations in the relative expression levels of the energy donor and acceptor, transfection conditions were designed so as to maintain a constant GFP10/Rluc expression ratio in each experimental set.

[4] = biological target: T3, β2-adrenergic receptor (β2AR); experiment: BRET2 receptor/G protein interaction assay: β2AR-Rluc (or β2AR-GFP10) with tagged G protein subunits in living HEK293T cells; type: cell-based
Description: Rluc-tagged receptors and G protein constructs were transiently co-transfected in HEK293T cells. […] For the experiment using α2AAR-Rluc (FIG. 4f), the G protein heterotrimer was complimented with the most specific Gαi2. Forty-eight hours post-transfection, cells were washed twice with PBS, detached with PBS-5 mM EDTA and resuspended in PBS-0.1% glucose at RT. Cells (50 μg of proteins per well) were then distributed in a 96-well microplate (white Optiplate, PerkinElmer) and incubated in the presence or absence of different ligands for 1 min except in the case of the kinetic studies where the times are indicated. DeepBlueC™ coelenterazine (PerkinElmer) was added at a final concentration of 5 μM, and readings (except for the kinetic studies; see below) were collected using a modified top-count apparatus (TopCount.NX™, Packard Bioscience) that allows the sequential integration of the signals detected in the 370-450 nm and 500-530 nm windows using filters with the appropriate band pass (Chroma). The BRET signal was determined by calculating the ratio of the light emitted by GFP10 (500-530 nm) over the light emitted by the Rluc (370-450 nm). The net BRET values were obtained by subtracting the BRET background signal detected when the Rluc-tagged construct was expressed alone from BRET signals detected in cells coexpressing both Rluc- and GFP10-tagged constructs. […]

[5] = untagged α2AAR, ligands 10 μM, FIG. 27A, 27C

COC1(C2=NCCN2)COc2ccccc2O1 (stereo not shown) [RX821002]
effect of pretreatment on UK14,304-promoted BRET increase, α2AAR / G protein pairs ([1]; FIG. 25): completely blocked the UK14,304-promoted BRET increase | effect of preincubation on agonist-stimulated BRET response, Gαi1-Rluc / α2AAR-GFP10 ([1]; agonist UK14304, FIG. 3E): completely blocked the agonist-stimulated response | modulation of BRET, Gαi1-Rluc / α2AAR-GFP10 ([1]; ligands 10 μM, FIG. 3E): unable to modulate the BRET signal | change in BRET2, Gαi1-91Rluc / α2AAR-GFP2 ([1]; ligands 10 μM, FIG. 20, 25): little or no effect | change in BRET2, Gαi1-122Rluc / α2AAR-GFP2 ([1]; ligands 10 μM, FIG. 20, 25): promoted a decrease in the BRET | change in BRET2, α2AAR-Rluc / GFP10-Gβ1 ([1]; ligands 10 μM, FIG. 20, 25): little or no effect | change in BRET2, α2AAR-Rluc / GFP10-Gγ2 ([1]; ligands 10 μM, FIG. 20, 25): little or no effect | change in BRET, Gαi1-91Rluc / GFP10-Gγ2 [2, 5]: no effect on the BRET signal | change in BRET, Gαi1-122Rluc / GFP10-Gγ2 [2, 5]: significant decrease in the BRET signal

Cc1cccc([C@H](C)c2cnc[nH]2)c1C [dexmedetomidine, Dexmedetomidine]
change in BRET2, Gαi1-91Rluc / α2AAR-GFP2 [1]: partial increase in BRET | change in BRET2, Gαi1-122Rluc / α2AAR-GFP2 [1]: larger responses | change in BRET2, α2AAR-Rluc / GFP10-Gβ1 [1]: partial increase in BRET | change in BRET2, α2AAR-Rluc / GFP10-Gγ2 [1]: partial increase in BRET | modulation of BRET, Gαi1-Rluc / α2AAR-GFP10 [1]: induced only a fraction of the full agonist modulation UK14304 | change in BRET, Gαi1-91Rluc / GFP10-Gγ2 [2, 5]: decreased the BRET | change in BRET, Gαi1-122Rluc / GFP10-Gγ2 [2, 5]: decreased the BRET

Nc1nc2c(ncn2[C@@H]2O[C@H](COP(=O)(O)OP(=O)(O)OP(=O)(O)O)[C@@H](O)[C@H]2O)c(=O)[nH]1 [GTP, Guanosine triphosphate]
effect of GTP on basal and agonist-stimulated BRET, β2AR-Rluc / GFP-Gβ1 or GFP-Gγ2 ([3]; high GTP concentrations, 90 min at 25° C., Iso 10 μM, FIG. 9): GTP sensitive

AVP: Vasopressin-selective agonist (V2R)
modulation of BRET signal, β2AR-Rluc / GFP-Gγ2 or GFP-Gβ1, in cells also expressing Myc-V2R ([4]; 10 μM AVP, specificity control, FIG. 7): unable to modulate BRET signal

CC(Cc1ccc(O)cc1)NCC(O)c1cc(O)cc(O)c1 (stereo not shown) [fenoterol]
ligand-promoted BRET response, β2AR-Rluc / GFP10-Gβ1 or GFP10-Gγ2, compared with isoproterenol ([4]; Feno 10 μM, Iso 10 μM, FIG. 3C): promoted only a fraction of the response evoked by the full agonist isoproterenol

COC(=O)[C@@H]1[C@H]2C[C@H]3c4[nH]c5ccccc5c4CCN3C[C@@H]2CC[C@@H]1O [yohimbine, Yohimbine]
change in BRET2, Gαi1-91Rluc / α2AAR-GFP2 [1]: little or no effect | change in BRET2, Gαi1-122Rluc / α2AAR-GFP2 [1]: promoted a decrease in the BRET | change in BRET2, α2AAR-Rluc / GFP10-Gβ1 [1]: little or no effect | change in BRET2, α2AAR-Rluc / GFP10-Gγ2 [1]: little or no effect | modulation of BRET, Gαi1-Rluc / α2AAR-GFP10 [1]: unable to modulate the BRET signal | change in BRET, Gαi1-91Rluc / GFP10-Gγ2 [2, 5]: no effect on the BRET signal | change in BRET, Gαi1-122Rluc / GFP10-Gγ2 [2, 5]: significant decrease in the BRET signal

pertussis toxin
effect of pre-treatment on agonist-promoted changes in BRET between α2AAR and G protein subunits [1]: blocked | effect of pre-treatment on agonist-promoted changes in BRET between α2AAR and G protein subunits ([1]; listed as PTX): greatly blunted agonist-promoted BRET changes | effect of treatment on UK14,304-promoted BRET changes, Gαi1-91Rluc or Gαi1-122Rluc / GFP10-Gγ2 ([2]; pertussis toxin 16 h at 37° C., FIG. 21): abolished

Nc1nc2c(ncn2[C@@H]2O[C@H](COP(=O)(O)OP(=O)(O)OP(O)(O)=S)[C@@H](O)[C@H]2O)c(=O)[nH]1 [GTPγS]
effect on agonist-promoted BRET signal, β2AR-Rluc / GFP10-Gβ1 or GFP10-Gγ2 ([3]; GTPγS 200 μM, 90 min at 25° C. pretreatment, Iso 10 μM): attenuated the agonist-promoted signal | effect on basal BRET in the absence of agonist, β2AR-Rluc / GFP10-Gβ1 or GFP10-Gγ2 ([3]; GTPγS 200 μM, 90 min at 25° C. pretreatment): reduced the basal BRET

Clc1cccc(Cl)c1N=C1NCCN1 [clonidine, Clonidine]
change in BRET2, Gαi1-91Rluc / α2AAR-GFP2 [1]: partial increase in BRET | change in BRET2, α2AAR-Rluc / GFP10-Gβ1 [1]: partial increase in BRET | change in BRET2, α2AAR-Rluc / GFP10-Gγ2 [1]: partial increase in BRET | modulation of BRET, Gαi1-Rluc / α2AAR-GFP10 [1]: induced only a fraction of the full agonist modulation UK14304 | change in BRET, Gαi1-91Rluc / GFP10-Gγ2 [2]: decreased the BRET | change in BRET, Gαi1-122Rluc / GFP10-Gγ2 [2]: decreased the BRET

Brc1c(NC2=NCCN2)ccc2nccnc12 [UK14,304]
change in BRET1, Gαi1-91Rluc / α2AAR-Venus, measured concomitantly with BRET2 in the same cells [1]: increase in the BRET | change in BRET2, Gαi1-91Rluc / α2AAR-GFP2 [1]: significantly increased the BRET | change in BRET2, α2AAR-Rluc / GFP10-Gβ1 [1]: significantly increased the BRET | change in BRET2, α2AAR-Rluc / GFP10-Gγ2 [1]: significantly increased the BRET | loss (decrease) of BRET signal, α2AAR-Rluc / GFP10-Gγ2 [1]: 24% | real-time BRET1 change, Gαi1-91Rluc / α2AAR-Venus [1]: rapid increases in the BRET | real-time BRET1 change, Rluc-Gγ2 / α2AAR-Venus [1]: rapid increases in the BRET | real-time BRET1 change, α2AAR-Venus / Gαi1-122Rluc [1]: rapid decrease in BRET^1 | time BRET levels reached following agonist stimulation remained constant, α2AAR-Venus pairs [1]: at least 12 seconds | change in BRET2, Gαi1-91Rluc / GFP10-Gγ2, measured concomitantly with BRET1 in the same cells [2]: decrease in BRET^2 | change in BRET, Gαi1-91Rluc / GFP10-Gγ2 [2]: promoted a reduction of BRET; also recorded: decreased the BRET | change in BRET, Gαi1-122Rluc / GFP10-Gγ2 [2]: promoted a reduction of BRET; also recorded: decreased the BRET
